Measured values from the supplement of paper PMC10307832.

Columns and labels:
Test in all cases: relative viability (nuclei count vs DMSO), 5 days (fraction); higher = more cells survive
Etoposide + Olaparib = compound: COc1cc([C@@H]2c3cc4c(cc3[C@@H](O[C@@H]3O[C@@H]5CO[C@@H](C)O[C@H]5[C@H](O)[C@H]3O)[C@H]3COC(=O)[C@H]23)OCO4)cc(OC)c1O [Etoposide] + O=C(c1cc(Cc2n[nH]c(=O)c3ccccc23)ccc1F)N1CCN(C(=O)C2CC2)CC1 [Olaparib] (partner 8 µM)
How it was run: (§1)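 Lung cancer cell lines were seeded in 1536-well plates and dosed by pin tool the next day, with either a single drug or a fixed anchor-drug dose combined with five library-drug doses (not always all listed) spaced in √10 steps. Five days later, one step fixed the cells and stained their nuclei (final 0.05% Triton X-100, 1% formaldehyde, 1 ug/ml Hoechst), and nuclei were counted on 4× images. Relative viability is the nuclei count in treated wells divided by the count in vehicle wells, and each value is the median of duplicate plates.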

Etoposide + Crizotinib = compound: COc1cc([C@@H]2c3cc4c(cc3[C@@H](O[C@@H]3O[C@@H]5CO[C@@H](C)O[C@H]5[C@H](O)[C@H]3O)[C@H]3COC(=O)[C@H]23)OCO4)cc(OC)c1O [Etoposide] + C[C@@H](Oc1cc(-c2cnn(C3CCNCC3)c2)cnc1N)c1c(Cl)ccc(F)c1Cl [Crizotinib] (partner 1 µM)
How it was run: as §1

Bleomycin + Lapatinib = compound: CC1=C(N=C(N=C1N)[C@H](CC(=O)N)NC[C@@H](C(=O)N)N)C(=O)N[C@@H]([C@H](C2=CN=CN2)OC3C(C(C(C(O3)CO)O)O)OC4C(C(C(C(O4)CO)O)OC(=O)N)O)C(=O)N[C@H](C)[C@H]([C@H](C)C(=O)N[C@@H]([C@@H](C)O)C(=O)NCCC5=NC(=CS5)C6=NC(=CS6)C(=O)NCCC[S+](C)C)O [Bleomycin] + CS(=O)(=O)CCNCc1ccc(-c2ccc3ncnc(Nc4ccc(OCc5cccc(F)c5)c(Cl)c4)c3c2)o1 [Lapatinib] (partner 2 µM); settings: main component drawn
How it was run: as §1

Bleomycin + Dasatinib = compound: CC1=C(N=C(N=C1N)[C@H](CC(=O)N)NC[C@@H](C(=O)N)N)C(=O)N[C@@H]([C@H](C2=CN=CN2)OC3C(C(C(C(O3)CO)O)O)OC4C(C(C(C(O4)CO)O)OC(=O)N)O)C(=O)N[C@H](C)[C@H]([C@H](C)C(=O)N[C@@H]([C@@H](C)O)C(=O)NCCC5=NC(=CS5)C6=NC(=CS6)C(=O)NCCC[S+](C)C)O [Bleomycin] + Cc1nc(Nc2ncc(C(=O)Nc3c(C)cccc3Cl)s2)cc(N2CCN(CCO)CC2)n1 [Dasatinib] (partner 0.075 µM); settings: main component drawn
How it was run: as §1

| Cell Line | relative viability (Etoposide + Olaparib; first compound 0.01 µM) | relative viability (Etoposide + Olaparib; first compound 0.03162 µM) | relative viability (Etoposide + Olaparib; first compound 0.1 µM) | relative viability (Etoposide + Olaparib; first compound 0.3162 µM) | relative viability (Etoposide + Olaparib; first compound 1 µM) | relative viability (Etoposide + Crizotinib; first compound 0.01 µM) | relative viability (Etoposide + Crizotinib; first compound 0.03162 µM) | relative viability (Etoposide + Crizotinib; first compound 0.1 µM) | relative viability (Etoposide + Crizotinib; first compound 0.3162 µM) | relative viability (Etoposide + Crizotinib; first compound 1 µM) | relative viability (Bleomycin + Lapatinib; first compound 0.01 µM) | relative viability (Bleomycin + Lapatinib; first compound 0.03162 µM) | relative viability (Bleomycin + Lapatinib; first compound 0.1 µM) | relative viability (Bleomycin + Lapatinib; first compound 0.3162 µM) | relative viability (Bleomycin + Lapatinib; first compound 1 µM) | relative viability (Bleomycin + Dasatinib; first compound 0.01 µM) | relative viability (Bleomycin + Dasatinib; first compound 0.03162 µM) | relative viability (Bleomycin + Dasatinib; first compound 0.1 µM) | relative viability (Bleomycin + Dasatinib; first compound 0.3162 µM) | relative viability (Bleomycin + Dasatinib; first compound 1 µM) |
| --- | --- | --- | --- | --- | --- | --- | --- | --- | --- | --- | --- | --- | --- | --- | --- | --- | --- | --- | --- | --- |
| NCI-H23 | 0.263 | 0.283 | 0.295 | 0.174 | 0.166 | 0.365 | 0.471 | 0.402 | 0.297 | 0.169 | 0.419 | 0.314 | 0.268 | 0.197 | 0.165 | 0.535 | 0.552 | 0.321 | 0.148 | 0.167 |
| EKVX | 0.832 | 0.955 | 0.658 | 0.647 | 0.293 | 0.868 | 0.916 | 0.891 | 0.816 | 0.414 | 0.211 | 0.209 | 0.187 | 0.127 | 0.166 | 0.56 | 0.435 | 0.502 | 0.276 | 0.26 |
| HOP-62 | 0.48 | 0.478 | 0.557 | 0.197 | 0.215 | 0.96 | 0.998 | 0.799 | 0.681 | 0.157 | 0.485 | 0.395 | 0.15 | 0.14 | 0.141 | 0.49 | 0.479 | 0.377 | 0.165 | 0.106 |
| NCI-H2228 | 0.586 | 0.524 | 0.776 | 0.296 | 0.146 | 0.633 | 0.551 | 0.457 | 0.373 | 0.218 | 0.999 | 1.12 | 0.852 | 0.355 | 0.505 | 0.45 | 0.495 | 0.618 | 0.342 | 0.172 |
| NCI-H358 | 0.692 | 0.519 | 0.521 | 0.104 | 0.0937 | 0.689 | 0.441 | 0.518 | 0.261 | 0.139 | 0.381 | 0.466 | 0.354 | 0.256 | 0.254 | 0.183 | 0.165 | 0.176 | 0.107 | 0.156 |
| EPLC-272H | 0.833 | 0.685 | 0.704 | 0.474 | 0.254 | 1.07 | 1.03 | 0.628 | 0.703 | 0.489 | 0.586 | 0.812 | 0.369 | 0.205 | 0.109 | 0.35 | 0.36 | 0.272 | 0.149 | 0.0954 |
| RERF-LC-KJ | 0.827 | 0.877 | 0.861 | 0.633 | 0.417 | 0.885 | 0.798 | 0.773 | 0.685 | 0.46 | 0.72 | 0.702 | 0.59 | 0.354 | 0.254 | 0.498 | 0.56 | 0.468 | 0.246 | 0.191 |
| NCI-H661 | 0.776 | 0.819 | 0.686 | 0.463 | 0.471 | 1.03 | 0.981 | 0.997 | 0.845 | 0.736 | 0.501 | 0.374 | 0.349 | 0.204 | 0.219 | 0.741 | 0.657 | 0.623 | 0.262 | 0.242 |
| PC-14 | 0.239 | 0.204 | 0.31 | 0.135 | 0.123 | 0.957 | 0.896 | 0.951 | 0.728 | 0.59 | 0.302 | 0.244 | 0.222 | 0.096 | 0.0848 | 0.176 | 0.126 | 0.0817 | 0.0123 | 0.0118 |
| COR-L 105 | 0.719 | 0.859 | 0.701 | 0.572 | 0.654 | 0.675 | 0.51 | 0.709 | 0.644 | 0.543 | 0.279 | 0.379 | 0.345 | 0.268 | 0.294 | 0.325 | 0.35 | 0.307 | 0.238 | 0.215 |
| NCI-H3122 | 0.456 | 0.587 | 0.634 | 0.297 | 0.21 | 0.307 | 0.288 | 0.231 | 0.262 | 0.246 | 0.931 | 0.996 | 0.842 | 0.654 | 0.528 | 0.833 | 0.999 | 0.749 | 0.366 | 0.206 |
| NCI-H727 | 0.681 | 0.632 | 0.55 | 0.689 | 0.478 | 0.771 | 0.683 | 0.867 | 0.766 | 0.585 | 0.718 | 0.781 | 0.695 | 0.204 | 0.472 | 0.466 | 0.345 | 0.325 | – | 0.293 |
| NCI-H1915 | 0.261 | 0.268 | 0.309 | 0.213 | 0.194 | 0.859 | 0.985 | 0.825 | 0.802 | 0.481 | 0.669 | 0.771 | 0.385 | 0.192 | 0.15 | 0.247 | 0.258 | 0.181 | 0.0914 | 0.0984 |
| CAL-12T | 0.716 | 0.623 | 0.693 | 0.368 | 0.213 | 0.547 | 0.573 | 0.82 | 0.298 | 0.223 | – | 0.557 | 0.454 | 0.218 | 0.21 | 0.246 | 0.259 | 0.164 | 0.0878 | 0.12 |
| NCI-H2087 | 0.579 | 0.564 | 0.489 | 0.319 | 0.161 | – | 1.02 | 0.856 | 0.571 | 0.277 | 0.642 | 0.97 | 0.798 | 0.301 | 0.235 | – | 0.852 | 0.668 | 0.131 | 0.13 |
